In ChEMBL document CHEMBL1201862, “PubChem BioAssay data set” (2004):
Calls of active or inactive are those of the source.

Tests used:
[1] = cytotoxicity in HEK-293T cells, dose response, cytotoxicity control for TCR NF-kB inhibitor project, luminescence, T-cell screen hits (AID 489026); type: functional, cell-based;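 further: cells exposed to compound about 14 hours before the viability readout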
[2] = biological target: Beta-galactosidase (Escherichia coli, UniProt Q8VNN2); test: Dose response counterscreen for EBI2 assay utilizing the enzyme, b-galactosidase.; type: functional
[3] = system: BJ; test: cytotoxicity toward BJ-TERT fibroblasts, dose response, cell-based, RAS-independent, luminescence (AID 1933); type: functional; settings: Homo sapiens
[4] = system: BJ; test: cells; type: functional, cell-based; settings: Homo sapiens
[5] = biological target: Luciferin 4-monooxygenase (Photinus pyralis, UniProt P08659); test: firefly luciferase enzyme inhibitors, dose response, biochemical, luminescence (AID 1891)
[6] = Luminescence Cell-Based Dose Confirmation HTS to Identify Inhibitors of Platelet Dense Granule Release. [Related pubchem assays: 1663 (Primary HTS), 1678 (Summary of Project)]; type: functional
[7] = system: BJ; test: cytotoxicity toward BJ-TERT-LT-ST fibroblasts, dose response, cell-based, RAS-independent, luminescence (AID 1935); type: functional; settings: Homo sapiens;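 further: BJ fibroblasts immortalized with TERT plus LT and ST oncogenes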
[8] = cytotoxicity toward DRD oncogenic fibroblasts, dose response, cell-based, non-viral oncogenic, luminescence (AID 1934); type: functional; settings: Homo sapiens
[9] = inhibitors of HIV Env-driven cell fusion, dose response, cherry-pick (AID 652057); type: functional, cell-based
[10] = CEM21 lymphoblast cell cytotoxicity, dose response, cytotoxicity control for viral fusion inhibitor project, CellTiter-Glo luminescence, cherry-picked (AID 652042); type: functional, cell-based;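 further: potency for signal decrease meaning cytotoxicity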
[11] = ZM109 Env clade C HIV-1 fusion inhibitors, dose response, HeLa effector, CEM target cells, luciferase, cherry-pick (AID 652058); type: functional, cell-based
[12] = biological target: Paired box protein Pax-8 (Homo sapiens, UniProt Q06710); test: inhibitors of PAX8-driven TPO luciferase reporter, dose response, RMG-I cells, cherry-pick (AID 687027); type: functional, cell-based;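 further: luciferase reporter driven by Pax8 target thyroperoxidase promoter measured by SteadyGlo luminescence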
[13] = off-target signal loss in HeLa-CEM21 co-culture – HeLa F-luc CTL cells, cherry-picked, counter-screen for HIV-1 Env fusion inhibitor project, dose response (AID 652040); type: functional, cell-based;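 further: potency for signal decrease marking cytotoxic or nonspecific inhibition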
[14] = inhibitors of clade B AD8 Env fusion, dose response, cell-based, cherry-pick (AID 652062); type: functional;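 further: luciferase signal from cell-cell fusion driven by HIV-1 clade B AD8 Env; potency is for inhibitors of fusion seen as a drop in luminescence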
[15] = non-specific cell cytotoxicity, dose response, cytotoxicity control for PAX8 inhibitor project, plate reader, dry powder samples (AID 743021); type: functional, cell-based
[16] = biological target: T1, Short transient receptor potential channel 4 (Mus musculus, UniProt Q9QUQ5); test: mouse TRPC4 channel activators, dose response, cell-based, HEK293 TRPC4/mu-opioid, Fluo-4 calcium (AID 434937); type: functional
T1 sequence (Q9QUQ5 whole entry): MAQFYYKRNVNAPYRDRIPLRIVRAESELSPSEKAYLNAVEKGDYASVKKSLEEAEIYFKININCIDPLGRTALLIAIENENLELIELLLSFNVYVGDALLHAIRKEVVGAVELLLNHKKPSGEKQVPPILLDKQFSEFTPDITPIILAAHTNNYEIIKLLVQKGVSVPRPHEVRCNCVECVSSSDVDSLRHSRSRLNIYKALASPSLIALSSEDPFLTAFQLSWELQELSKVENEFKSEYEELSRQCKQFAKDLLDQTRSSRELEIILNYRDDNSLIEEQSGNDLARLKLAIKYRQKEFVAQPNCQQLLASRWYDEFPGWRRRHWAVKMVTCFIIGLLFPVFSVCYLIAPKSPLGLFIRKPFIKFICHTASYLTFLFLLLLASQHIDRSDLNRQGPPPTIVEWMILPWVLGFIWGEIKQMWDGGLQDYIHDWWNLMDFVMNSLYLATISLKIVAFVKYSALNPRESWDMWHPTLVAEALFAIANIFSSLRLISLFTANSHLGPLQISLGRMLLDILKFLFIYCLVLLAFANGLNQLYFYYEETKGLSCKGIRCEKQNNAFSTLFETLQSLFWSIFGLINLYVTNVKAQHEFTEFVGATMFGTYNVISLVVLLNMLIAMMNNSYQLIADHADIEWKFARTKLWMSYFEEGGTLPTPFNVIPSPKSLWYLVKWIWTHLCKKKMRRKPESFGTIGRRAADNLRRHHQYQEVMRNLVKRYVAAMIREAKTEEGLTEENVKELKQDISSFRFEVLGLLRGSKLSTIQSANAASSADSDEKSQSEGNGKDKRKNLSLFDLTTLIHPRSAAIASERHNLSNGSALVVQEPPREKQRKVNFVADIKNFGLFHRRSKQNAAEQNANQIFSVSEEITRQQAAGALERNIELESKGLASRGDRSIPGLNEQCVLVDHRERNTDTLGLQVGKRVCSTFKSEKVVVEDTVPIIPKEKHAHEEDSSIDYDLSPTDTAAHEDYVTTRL

[17] = biological target: T2, Mannose-6-phosphate isomerase (Homo sapiens, UniProt P34949); test: inhibitors of human PMI, primary screen, biochemical, fluorescence intensity, coupled assay (AID 1209)
T2 sequence (P34949 whole entry): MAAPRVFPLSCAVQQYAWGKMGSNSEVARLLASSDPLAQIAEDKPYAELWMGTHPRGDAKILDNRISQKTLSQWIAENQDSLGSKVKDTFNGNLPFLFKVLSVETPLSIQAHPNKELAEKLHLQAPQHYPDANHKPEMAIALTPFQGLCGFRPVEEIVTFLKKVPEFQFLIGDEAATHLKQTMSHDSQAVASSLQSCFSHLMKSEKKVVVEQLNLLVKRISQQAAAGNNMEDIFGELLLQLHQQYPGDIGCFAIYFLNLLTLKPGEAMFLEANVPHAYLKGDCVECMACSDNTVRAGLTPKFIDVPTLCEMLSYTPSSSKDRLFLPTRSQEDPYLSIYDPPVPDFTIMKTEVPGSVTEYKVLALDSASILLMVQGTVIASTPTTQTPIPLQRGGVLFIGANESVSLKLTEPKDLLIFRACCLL

[18] = biological target: Induced myeloid leukemia cell differentiation protein Mcl-1 (Homo sapiens, UniProt Q07820); type: functional
[19] = biological target: T2, Mannose-6-phosphate isomerase; test: PMI enzyme inhibitors, confirmation, biochemical, fluorescence intensity (AID 1535)
[20] = biological target: DNA dC->dU-editing enzyme APOBEC-3A (Homo sapiens, UniProt P31941); test: Dose Response confirmation of small molecule APOBEC3A DNA Deaminase Inhibitors via a fluorescence-based single-stranded DNA deaminase assay. [Related pubchem assays (depositor defined):AID493011, AID493024]; type: functional
[21] = biological target: T3, Phosphomannomutase 2 (Homo sapiens, UniProt O15305); test: Counter screen SAR assay for PMM2 inhibitors via a fluorescence intensity assay. [Related pubchem assays (depositor defined):AID1545, AID1574]
T3 sequence (O15305 whole entry): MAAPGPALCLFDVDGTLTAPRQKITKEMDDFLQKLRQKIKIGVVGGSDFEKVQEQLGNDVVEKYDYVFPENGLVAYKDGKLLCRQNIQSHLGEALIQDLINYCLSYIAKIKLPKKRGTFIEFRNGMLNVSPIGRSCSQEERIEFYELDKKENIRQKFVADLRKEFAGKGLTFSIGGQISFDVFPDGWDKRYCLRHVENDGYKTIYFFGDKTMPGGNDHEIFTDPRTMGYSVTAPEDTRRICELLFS

[22] = biological target: DNA dC->dU-editing enzyme APOBEC-3G (Homo sapiens, UniProt Q9HC16); type: functional;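 further: Dose-response counterscreen measuring inhibition of APOBEC3G DNA deaminase activity, run while confirming APOBEC3A inhibitors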
[23] = biological target: Genome polyprotein (dengue virus type 2, UniProt P29990); test: Dengue-2 NS5 methyltransferase inhibitors, primary screen, biochemical, confirmation dose response (AID 588689); type: functional
[24] = biological target: T4, Carboxy-terminal domain RNA polymerase II polypeptide A small phosphatase 1 (Homo sapiens, UniProt Q9GZU7); test: inhibitors of CTDSP1, concentration-response testing, biochemical assay, absorbance-based, actives from ultra-high-throughput screening (AID 540297); type: functional
T4 sequence (Q9GZU7 whole entry): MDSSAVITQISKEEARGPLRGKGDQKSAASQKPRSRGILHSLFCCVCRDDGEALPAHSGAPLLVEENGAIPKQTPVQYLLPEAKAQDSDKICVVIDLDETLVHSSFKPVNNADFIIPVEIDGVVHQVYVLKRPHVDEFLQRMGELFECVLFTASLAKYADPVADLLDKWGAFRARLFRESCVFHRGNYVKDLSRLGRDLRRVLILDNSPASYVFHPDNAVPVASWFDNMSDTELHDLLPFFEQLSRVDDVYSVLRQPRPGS

[25] = biological target: T5, Rac GTPase-activating protein 1 (Homo sapiens, UniProt Q9H0H5); test: MgcRacGAP GTPase-activating activity inhibitors, confirmation, biochemical, ADP Hunter fluorescence, primary and confirmatory (AID 624330); type: functional
T5 sequence (Q9H0H5 whole entry): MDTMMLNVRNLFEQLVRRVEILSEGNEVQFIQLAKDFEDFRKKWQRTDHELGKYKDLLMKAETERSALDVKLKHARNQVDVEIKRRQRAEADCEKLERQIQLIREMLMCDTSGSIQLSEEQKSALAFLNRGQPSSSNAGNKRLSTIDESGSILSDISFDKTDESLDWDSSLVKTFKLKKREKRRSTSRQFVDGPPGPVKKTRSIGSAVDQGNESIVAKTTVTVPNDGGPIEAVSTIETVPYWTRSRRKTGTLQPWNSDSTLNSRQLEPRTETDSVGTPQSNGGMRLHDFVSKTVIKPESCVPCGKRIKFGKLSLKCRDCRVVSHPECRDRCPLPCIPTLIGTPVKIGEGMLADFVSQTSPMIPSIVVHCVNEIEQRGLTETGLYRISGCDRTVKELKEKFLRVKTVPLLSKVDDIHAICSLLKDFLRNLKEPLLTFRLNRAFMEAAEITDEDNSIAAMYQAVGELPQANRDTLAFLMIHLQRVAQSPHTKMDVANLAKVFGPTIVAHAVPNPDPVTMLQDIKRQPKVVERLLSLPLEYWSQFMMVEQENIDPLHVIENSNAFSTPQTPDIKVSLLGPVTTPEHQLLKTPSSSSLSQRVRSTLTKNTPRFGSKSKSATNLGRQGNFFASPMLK

[26] = biological target: T6, Voltage-gated N-type calcium channel alpha-1B subunit/Amyloid beta A4 precursor protein-binding family A member 1 (Homo sapiens, UniProt Q00975+Q02410); type: protein assay
[27] = biological target: T6, Voltage-gated N-type calcium channel alpha-1B subunit/Amyloid beta A4 precursor protein-binding family A member 1; type: protein assay; remark: listed apart in the source
[28] = biological target: T2, Mannose-6-phosphate isomerase; test: human PMI inhibitors, high substrate, primary screen, biochemical, fluorescence intensity, high mannose 6-phosphate (AID 1220)
[29] = biological target: Eukaryotic translation initiation factor 4E (Mus musculus, UniProt P63073); test: eIF4E–eIF4G protein interaction inhibitors, dose response, biochemical, TR-FRET (AID 855); type: functional;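 further: potency for disrupting eIF4E binding to eIF4GI seen as loss of FRET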
[30] = biological target: T7, X-box-binding protein 1 (Homo sapiens, UniProt P17861); type: functional, Cricetulus griseus;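 further: confirmatory dose-response counter-screen serving a CHOP assay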
T7 sequence (P17861 whole entry): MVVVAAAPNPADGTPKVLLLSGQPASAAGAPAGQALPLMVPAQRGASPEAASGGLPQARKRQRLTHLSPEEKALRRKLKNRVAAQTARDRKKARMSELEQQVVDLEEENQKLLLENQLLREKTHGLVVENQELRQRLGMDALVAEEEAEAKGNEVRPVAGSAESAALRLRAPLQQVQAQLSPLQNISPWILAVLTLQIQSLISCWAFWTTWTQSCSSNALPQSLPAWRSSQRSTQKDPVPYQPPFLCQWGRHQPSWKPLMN

[31] = biological target: Heat shock protein HSP 90-alpha (Homo sapiens, UniProt P07900); type: functional, organism-based
[32] = HeLa cell cytotoxicity, dose response, cytotoxicity control for MgcRacGAP inhibitor project (AID 624300); type: functional

T6 sequence (Q00975 whole entry): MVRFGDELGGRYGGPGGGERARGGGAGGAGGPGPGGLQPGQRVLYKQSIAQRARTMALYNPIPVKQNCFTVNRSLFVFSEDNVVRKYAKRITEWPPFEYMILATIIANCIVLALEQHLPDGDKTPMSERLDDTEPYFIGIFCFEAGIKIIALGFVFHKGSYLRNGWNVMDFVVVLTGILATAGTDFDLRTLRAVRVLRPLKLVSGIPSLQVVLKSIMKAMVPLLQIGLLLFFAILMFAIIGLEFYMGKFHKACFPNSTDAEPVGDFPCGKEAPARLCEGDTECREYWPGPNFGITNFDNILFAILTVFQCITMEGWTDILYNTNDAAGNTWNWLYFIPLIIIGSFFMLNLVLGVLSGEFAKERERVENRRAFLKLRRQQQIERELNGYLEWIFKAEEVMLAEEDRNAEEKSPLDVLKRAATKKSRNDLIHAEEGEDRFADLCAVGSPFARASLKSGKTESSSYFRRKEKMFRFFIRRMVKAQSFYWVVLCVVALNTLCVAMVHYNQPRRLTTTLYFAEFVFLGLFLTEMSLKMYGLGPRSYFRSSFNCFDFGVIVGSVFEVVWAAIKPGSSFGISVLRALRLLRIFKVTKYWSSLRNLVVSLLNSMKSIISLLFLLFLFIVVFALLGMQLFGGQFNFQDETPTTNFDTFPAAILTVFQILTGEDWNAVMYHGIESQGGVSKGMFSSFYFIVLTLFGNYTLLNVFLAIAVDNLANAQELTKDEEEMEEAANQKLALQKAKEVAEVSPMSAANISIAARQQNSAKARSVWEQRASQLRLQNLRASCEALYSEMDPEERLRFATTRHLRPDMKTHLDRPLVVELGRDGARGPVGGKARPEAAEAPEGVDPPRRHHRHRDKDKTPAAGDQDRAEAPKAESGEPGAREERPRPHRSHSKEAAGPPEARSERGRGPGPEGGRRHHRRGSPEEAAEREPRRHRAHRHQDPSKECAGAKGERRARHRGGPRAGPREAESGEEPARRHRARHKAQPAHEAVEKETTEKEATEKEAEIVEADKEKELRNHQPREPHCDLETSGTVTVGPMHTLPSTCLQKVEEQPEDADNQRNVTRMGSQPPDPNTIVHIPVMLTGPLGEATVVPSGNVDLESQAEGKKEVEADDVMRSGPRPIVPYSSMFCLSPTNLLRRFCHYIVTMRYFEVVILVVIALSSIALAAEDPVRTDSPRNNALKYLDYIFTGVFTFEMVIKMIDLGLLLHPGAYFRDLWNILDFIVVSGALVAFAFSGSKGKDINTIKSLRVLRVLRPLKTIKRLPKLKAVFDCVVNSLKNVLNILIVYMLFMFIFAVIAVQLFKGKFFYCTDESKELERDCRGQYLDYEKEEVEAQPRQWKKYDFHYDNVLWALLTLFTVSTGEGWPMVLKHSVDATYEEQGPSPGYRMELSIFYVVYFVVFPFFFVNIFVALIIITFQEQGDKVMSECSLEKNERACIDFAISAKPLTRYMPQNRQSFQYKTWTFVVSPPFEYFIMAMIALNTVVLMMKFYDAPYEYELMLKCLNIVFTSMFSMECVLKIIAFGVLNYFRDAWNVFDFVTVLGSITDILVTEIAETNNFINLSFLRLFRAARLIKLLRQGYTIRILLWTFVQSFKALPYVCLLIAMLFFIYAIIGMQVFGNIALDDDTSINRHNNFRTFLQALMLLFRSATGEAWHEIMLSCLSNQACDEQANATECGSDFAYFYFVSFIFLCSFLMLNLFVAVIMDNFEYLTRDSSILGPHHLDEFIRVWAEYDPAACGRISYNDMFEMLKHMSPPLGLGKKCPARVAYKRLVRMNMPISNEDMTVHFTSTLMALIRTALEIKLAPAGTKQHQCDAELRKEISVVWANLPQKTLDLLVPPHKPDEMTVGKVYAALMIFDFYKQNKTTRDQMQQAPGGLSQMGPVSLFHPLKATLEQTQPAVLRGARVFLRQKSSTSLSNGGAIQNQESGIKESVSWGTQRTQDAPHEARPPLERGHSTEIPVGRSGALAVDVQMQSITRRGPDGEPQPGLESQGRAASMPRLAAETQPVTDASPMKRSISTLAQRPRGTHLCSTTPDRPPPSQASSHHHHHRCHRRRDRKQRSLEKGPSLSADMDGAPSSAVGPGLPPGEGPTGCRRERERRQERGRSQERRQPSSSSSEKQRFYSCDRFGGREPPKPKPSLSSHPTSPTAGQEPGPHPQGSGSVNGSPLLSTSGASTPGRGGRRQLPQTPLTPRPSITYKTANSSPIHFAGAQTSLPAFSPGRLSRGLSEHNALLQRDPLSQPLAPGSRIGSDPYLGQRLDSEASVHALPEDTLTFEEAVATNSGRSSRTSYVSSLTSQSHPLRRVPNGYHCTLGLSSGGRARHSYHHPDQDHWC
T6 sequence (Q02410 whole entry): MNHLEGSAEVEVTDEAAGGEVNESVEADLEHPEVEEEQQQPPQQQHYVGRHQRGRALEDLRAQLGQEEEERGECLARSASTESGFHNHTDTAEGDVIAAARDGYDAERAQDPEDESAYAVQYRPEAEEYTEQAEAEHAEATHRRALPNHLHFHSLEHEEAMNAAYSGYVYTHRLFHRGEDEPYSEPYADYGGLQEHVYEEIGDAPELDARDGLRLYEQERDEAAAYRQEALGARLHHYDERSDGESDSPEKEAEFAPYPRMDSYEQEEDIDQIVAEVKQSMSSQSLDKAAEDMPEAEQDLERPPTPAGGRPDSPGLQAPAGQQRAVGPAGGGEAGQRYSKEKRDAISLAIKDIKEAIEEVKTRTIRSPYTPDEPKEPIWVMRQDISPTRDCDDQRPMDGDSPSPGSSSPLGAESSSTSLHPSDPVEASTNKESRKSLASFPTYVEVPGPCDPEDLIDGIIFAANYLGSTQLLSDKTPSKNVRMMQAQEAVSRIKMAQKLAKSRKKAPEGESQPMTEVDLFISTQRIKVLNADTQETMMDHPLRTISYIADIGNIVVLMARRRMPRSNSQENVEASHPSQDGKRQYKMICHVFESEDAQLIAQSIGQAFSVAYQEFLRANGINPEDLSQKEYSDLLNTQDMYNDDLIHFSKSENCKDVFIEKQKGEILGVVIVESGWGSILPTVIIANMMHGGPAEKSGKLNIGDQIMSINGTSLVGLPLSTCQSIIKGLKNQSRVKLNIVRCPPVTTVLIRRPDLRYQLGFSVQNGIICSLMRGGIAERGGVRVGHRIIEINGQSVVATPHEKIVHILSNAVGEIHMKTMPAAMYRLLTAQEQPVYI
Paired box protein Pax-8, sequence (Q06710 whole entry, the tested form may be a part): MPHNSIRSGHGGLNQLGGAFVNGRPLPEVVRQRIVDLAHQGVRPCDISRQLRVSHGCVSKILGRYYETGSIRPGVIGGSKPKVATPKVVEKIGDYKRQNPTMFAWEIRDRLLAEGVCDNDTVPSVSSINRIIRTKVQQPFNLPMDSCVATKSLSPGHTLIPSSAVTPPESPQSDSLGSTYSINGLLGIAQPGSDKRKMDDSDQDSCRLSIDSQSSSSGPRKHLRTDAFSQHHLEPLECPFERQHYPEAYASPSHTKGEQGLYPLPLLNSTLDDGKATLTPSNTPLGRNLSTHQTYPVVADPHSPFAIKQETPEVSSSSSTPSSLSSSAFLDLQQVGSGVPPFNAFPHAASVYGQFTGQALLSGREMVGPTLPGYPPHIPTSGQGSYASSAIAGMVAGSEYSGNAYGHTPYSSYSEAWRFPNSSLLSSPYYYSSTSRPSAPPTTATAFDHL
Induced myeloid leukemia cell differentiation protein Mcl-1, sequence (Q07820 whole entry): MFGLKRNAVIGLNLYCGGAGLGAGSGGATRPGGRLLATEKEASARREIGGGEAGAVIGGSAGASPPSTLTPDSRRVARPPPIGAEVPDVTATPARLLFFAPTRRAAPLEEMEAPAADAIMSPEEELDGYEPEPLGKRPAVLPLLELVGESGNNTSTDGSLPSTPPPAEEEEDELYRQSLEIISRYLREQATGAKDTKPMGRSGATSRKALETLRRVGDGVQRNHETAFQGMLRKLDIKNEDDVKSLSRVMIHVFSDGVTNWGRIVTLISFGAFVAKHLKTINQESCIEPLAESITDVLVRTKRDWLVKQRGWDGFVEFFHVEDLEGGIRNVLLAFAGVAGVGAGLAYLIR
Genome polyprotein, sequence (P29990 2492-3391 limits assumed): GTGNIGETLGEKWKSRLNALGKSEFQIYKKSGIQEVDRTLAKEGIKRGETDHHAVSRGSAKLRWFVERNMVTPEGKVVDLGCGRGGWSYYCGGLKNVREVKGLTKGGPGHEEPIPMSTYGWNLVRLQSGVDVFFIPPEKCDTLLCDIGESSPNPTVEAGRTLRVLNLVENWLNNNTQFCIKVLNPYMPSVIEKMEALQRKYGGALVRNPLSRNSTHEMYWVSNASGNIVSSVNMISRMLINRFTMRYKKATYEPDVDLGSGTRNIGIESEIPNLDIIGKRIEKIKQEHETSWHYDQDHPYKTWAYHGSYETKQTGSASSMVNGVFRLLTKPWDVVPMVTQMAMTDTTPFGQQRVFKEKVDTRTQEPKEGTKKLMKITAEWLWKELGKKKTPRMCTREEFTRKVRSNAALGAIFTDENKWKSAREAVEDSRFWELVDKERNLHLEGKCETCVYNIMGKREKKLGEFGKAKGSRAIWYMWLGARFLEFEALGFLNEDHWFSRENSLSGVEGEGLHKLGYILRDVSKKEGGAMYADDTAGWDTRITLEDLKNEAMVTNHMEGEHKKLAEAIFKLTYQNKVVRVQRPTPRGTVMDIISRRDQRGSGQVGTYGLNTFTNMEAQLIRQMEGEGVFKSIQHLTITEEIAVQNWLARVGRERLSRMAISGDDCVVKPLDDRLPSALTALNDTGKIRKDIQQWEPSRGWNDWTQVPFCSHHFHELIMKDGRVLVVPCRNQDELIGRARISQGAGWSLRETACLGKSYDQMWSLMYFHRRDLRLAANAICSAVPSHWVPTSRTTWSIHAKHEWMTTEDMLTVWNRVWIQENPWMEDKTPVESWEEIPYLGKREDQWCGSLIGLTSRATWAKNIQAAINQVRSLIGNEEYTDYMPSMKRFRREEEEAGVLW
DNA dC->dU-editing enzyme APOBEC-3A, sequence (P31941 whole entry): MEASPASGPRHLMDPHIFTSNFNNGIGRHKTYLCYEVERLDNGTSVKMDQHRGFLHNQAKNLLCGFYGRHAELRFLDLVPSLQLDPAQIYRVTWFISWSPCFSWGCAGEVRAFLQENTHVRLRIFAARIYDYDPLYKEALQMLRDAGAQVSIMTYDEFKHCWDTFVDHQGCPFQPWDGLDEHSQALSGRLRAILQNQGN

SMILES: COc1ccc(Nc2nc(-c3sc(C)nc3C)cs2)cc1
- IC50 [1]: 49.6 µM (inactive)
- IC50 [2]: > 80 µM (inactive)

SMILES: O=C(O)c1ccc(N/N=C/c2ccc3c(c2)OCO3)cc1
- EC50 [3]: 13.1 µM (active)
- EC50 [4]: 8.37 µM (active)
- EC50 [5]: < 0.088 µM (active)
- EC50 [6]: < 0.088 µM (active)
- EC50 [7]: 24.2 µM (active)
- EC50 [8]: 8.19 µM (active)
- IC50 [1]: > 80 µM (inactive)
- AC50 [9]: 2.44 µM (active)
- AC50 [10]: 36.6 µM (active)
- AC50 [11]: 9.48 µM (active)
- AC50 [12]: 3.04 µM (active)
- AC50 [13]: 4.15 µM (active)
- AC50 [14]: 5.24 µM (active)
- AC50 [15]: 27.7 µM (active)

SMILES: CCOC(=O)c1ccccc1NC(=O)Cn1c(-c2nonc2N)nc2ccccc21
- IC50 [1]: > 80 µM (inactive)

SMILES: CN(CCc1ccccn1)C(=O)CC1C(=O)NCCN1Cc1ccc(-c2ccccc2)cc1 (centres undefined)
- EC50 [16]: 3.76 µM (active)

SMILES: CCCn1ncc(CN2CCC(n3nccc3NC(=O)CCc3ccccc3)CC2)c1C
- EC50 [16]: 0.024 µM (active)

SMILES: CN(C)CCNC(=O)c1scc2c1CCCC2
- EC50 [16]: 3.35 µM (active)

SMILES: O=C(O)CCn1cc(C=C2C(=O)NC(=S)NC2=O)c(-c2cccc(Br)c2)n1
- IC50 [17]: 11.7 µM (active)
- IC50 [18]: 2.39 µM (active)
- IC50 [19]: 9.83 µM (active)
- IC50 [20]: 15.8 µM (active)
- IC50 [21]: > 100 µM (inactive)
- IC50 [22]: 29.3 µM (active)
- IC50 [23]: 6.04 µM (active)
- IC50 [24]: 4.47 µM (active)
- IC50 [25]: 89.9 µM (active)

SMILES: Clc1nss/c1=N\c1ccc(Br)cc1
- IC50 [26]: 11.6 µM (active)
- IC50 [27]: 4.16 µM (active)
- IC50 [28]: > 50 µM (not active)
- IC50 [19]: 7.28 µM (active)
- IC50 [21]: > 100 µM (inactive)
- IC50 [29]: 50 µM (inactive)
- Absolute IC50 (XBP1) [30]: < 10 µM
- AC50 [31]: 24.4 µM (active)
- CC50 [32]: 100 µM (active)
- IC50 [25]: 37.5 µM (active)
